Like-named read-outs stand apart in the source and are kept apart here.
Experiments:
[1] = Growth inhibition (OD610), mixed chemostat culture; type: cell-based, A. viscosus, L. casei, S. oralis, F. nucleatum, V. parvula; conditions: Mixed species incubated in 37° C.
Description: (§1) Single species of Streptococcus gordonii (S. gordonii, S.g) strain V288 (ATCC #35105), Streptococcus sobrinus (S. sobrinus, S.$) strain SL1[CCM 6070, CNCTC 9/89] (ATCC #33478), or Aggregatibacter actinomycetemcomitans were analyzed. Also, a mixed culture containing Actinomyces viscosus (A. viscosus, A.v) strain (ATCC, #43146), Lactobacillus casei (L. casei, L.c) strain (ATCC #334), Streptococcus oralis (S. oralis, S. o) strain (ATCC #35037), Fusobacterium nucleatum (F. nucleatum, F. n) strain (ATCC #10953), and Veilonella parvula (V. parvula, V. p) strain (ATCC #17745) was also analyzed for growth inhibition/toxicity activity. Bacteria were cultured overnight in approximately 20 ml of BHI broth (BD, cat #237500) or maintained in a specialized complex modified BHI II medium in a continuous culture chemostat at 37° C. respectively. The following day, the OD610 were determined and solutions diluted to an OD610 of 0.2 or 0.1 respectively for the assay.
(§2) Triclosan (positive control) was prepared as a 10% stock in 100% EtOH and 3 fold serial dilutions were performed in 100% EtOH. An appropriate amount of the diluted samples was then transferred into a 96 well clear plate such that the resulting final concentration of the test samples ranged from either a 2 mM or 4 mM (highest concentration) to 0.0078 mM or 0.0156 mM (lowest concentration respectively) in 2% DMSO in 100 μl media per well. Triclosan (TCN) ranged from 0.01% to 1.67e-6% in 1% EtOH. For Zinc acetate, in order to mimic the 2:1 molar ratio (ligand:Zinc) in the Naringin:Zinc complex, the final concentration ranged from 0.7 mM to 0.0027 mM for samples with 2 mM as the highest concentration and 1.33 mM to […] for samples with 4 mM as the highest concentration in 2% DMSO. Next, 100 μl of bacterial culture at OD610 0.2 were introduced to the wells with the test samples. The wells were thoroughly mixed and incubated at 37° C. overnight. The plates were read using an Envision plate reader (PerkinElmer, Waltham, Mass.) at 610 nm.
(§3) The IC50 for the complex, Product 5, was determined for Streptococcus gordonii (S. gordonii), Streptococcus sobrinus (S. sobrinus), Aggregatibacter actinomycetemcomitans (A. actinomycetemcomitans), and also for the mixed bacterial culture. […] Triclosan (TCN) was included as a positive control for bacterial inhibition.
(§4) Antimicrobial characterization was also performed on mixed culture solutions having at least five microbial species present. A mixed culture containing Actinomyces viscosus (A. viscosus, A.v) (ATCC, #43146), Lactobacillus casei (L. casei, L.c) (ATCC #334), Streptococcus oralis (S. oralis, S.o) (ATCC #35037), Fusobacterium nucleatum (F. nucleatum, F.n) (ATCC #10953) and Veilonella parvula (V. parvula, V.p) (ATCC #17745) was maintained in a specialized complex medium (Modified BHI II Medium) in a continuous culture chemostat at 37° C. Approximately 10 ml of the culture was removed and the OD610 was determined. The assay was performed using cultures at two concentrations; 0.03 and 0.1 at OD610. […] Triclosan (positive control) was prepared as a 10% stock in 100% EtOH and 3 fold serial dilutions were performed in 100% EtOH. […] For Zinc Acetate, in order to mimic the 2:1 ratio (ligand:Zinc) composition as in the complex, the final concentration range from 0.7 mM to 0.0027 mM in 2% DMSO was used instead.
(§5) A 100 μl of bacterial culture at chosen OD610 (0.03 or 0.1) was introduced into the wells with the test samples. The wells were thoroughly mixed and plates incubated overnight in a 37° C. incubator with or without 5% CO2. After approximately 12-13 hours of treatment, the plate was read using Envision plate reader (Serial #1040984), absorbance at 610 nm. The % inhibition relative to control was determined as described for previously described antimicrobial protocols, supra.

[2] = test system: mixed culture containing Actinomyces viscosus, Lactobacillus casei, Streptococcus oralis, Fusobacterium nucleatum and Veilonella parvula; assay: Growth inhibition (OD610), mixed chemostat culture; type: cell-based, A. viscosus, L. casei, S. oralis, F. nucleatum, V. parvula; conditions: for % Inhibition: Mixed species incubated in 37° C., 0.0875 mM
Description: as §1, §2, §3, §4, §5

[3] = test system: EpiGingival™ tissue models; assay: Tissue zinc uptake analysis; type: in vitro ADME; conditions: 2 minute treatment
Description: All samples were prepared in a final concentration of 1% DMSO in 7% of Propylene Glycol (PG). […] For the vehicle only control, 1% DMSO in 7% PG was used. All samples were equilibrated to 37° C. prior to testing.
Zinc uptake studies were performed using EpiGingival™ tissue models from MatTek Corporation. Briefly, EpiGingival™ tissue inserts were equilibrated overnight in 1 ml of the EpiGingival™ assay media (supplied by MatTek Corporation). For testing, working with one insert at a time, the insert was removed and placed inside a clean 6 well plate. Then, 1 ml of the test sample was carefully removed and introduced to the inside of the insert and allowed to incubate for 2 minutes. Next, the samples were removed using an aspirator and the tissue rinsed with 1 ml of warm water (37° C.). This was repeated for 2 more times for a total of 3 washes. At the end of the last wash making sure to remove as much of the water as possible, the tissue was disengaged from the insert with the tip of a sterile forceps, and transferred into a clean 15 ml Falcon tube. The process was repeated until all the tissues were treated. Experiments were performed three times with each test sample assayed in duplicate.
Digestion of Tissues: Briefly, 0.5 ml of a mixture of 7:3 HCl/HNO3 was introduced into a 15 ml Falcon tube containing one of the treated tissue samples and allowed to digest overnight. The following day, 4.5 ml of water was added to each of the digested tissue samples, thoroughly mixed and centrifuged at 4,000 RPM for 10 minutes at room temperature. The clear supernatant (4.5 ml) was transferred into a clean, labeled Falcon tube and submitted for analytical analysis of Zinc.
A one way ANOVA was done to determine the p value. A plot of the average zinc (ppm) against the various treatments was generated (see FIG. 19).

[4] = 1 mM complex or combination, 0.33 mM Zinc acetate

Compound	inhibition at 250 µM ([1]; 5% CO2 (anaerobic), 0.25 mM (combination 0.1625 mM + 0.0875 mM, 0.25 mM total))	inhibition at 250 µM ([1]; Air (aerobic), 0.25 mM (combination 0.25 mM total))	IC50 ([2]; Mixed Species (aerobic))	IC50 ([2]; Mixed Species (anaerobic), read-out: IC50)	% Inhibition ([2]; 5% CO2 (anaerobic))	% Inhibition ([2]; Air (aerobic))	Zn (ppm) Preparation 1 N1 ([3]; 1 mM complex or combination (0.67 mM + 0.33 mM), 0.33 mM Zinc acetate)	Zn (ppm) Preparation 1 N2 [3, 4]	Zn (ppm) Preparation 2 N1 [3, 4]	Zn (ppm) Preparation 2 N2 [3, 4]	Zn (ppm) Preparation 3 N1 [3, 4]	Zn (ppm) Preparation 3 N2 [3, 4]	Zn Ave (ppm) ([3]; average of three preparations in duplicate)
C[C@@H]1O[C@@H](O[C@H]2[C@H](Oc3cc(O)c4c(c3)O[C@H](c3ccc(O)cc3)CC4=O)O[C@H](CO)[C@@H](O)[C@@H]2O)[C@H](O)[C@H](O)[C@H]1O [Naringin]	3.51 ± 1.53%	3.1 ± 3.31%	–	–	–	–	–	–	–	–	–	–	–
CC(=O)[O-].CC(=O)[O-].[Zn+2] [Zinc Acetate alone, Zinc (II) Acetate]	–	–	Ambiguous	250 µM	−1.46 ± 0.0%	18.07 ± 2.65%	0.96 ppm	0.92 ppm	0.82 ppm	0.81 ppm	0.84 ppm	0.85 ppm	0.87 ppm

Reference: patent US10548829B2, “Oral care compositions and methods of use” (priority 2016, dated 2020)
